Assay results: a melting point compilation (Tetko et al.; mined from patent text by program, amines drawn as free bases though some values may be those of a salt)

Row | Compound | melting point
1 | CC=CCn1c(C)c(C)c2cnnc(OCc3ccco3)c21 | 84 to 85 °C
2 | COC(=O)C(O)c1ccc(C#N)cc1 (stereo not drawn) | 51 to 52 °C
3 | COC(=O)C=CC(=O)N[C@@H](CO)c1ccccc1 | 75 to 77 °C
4 | CCCOC(C)Cc1ccc(-c2ccc(O)cc2)cc1 (single isomer, unassigned; (-)) | 52 to 54 °C
5 | CCc1cc2c3c(ccc2[nH]1)OCC(CN1CC=C(c2c[nH]c4ccccc24)CC1)O3 (stereo not drawn) | 175 to 177 °C
6 | CC(C)(C)c1cc(Cn2c(=O)n(Cc3cc(C(C)(C)C)c(O)c(C(C)(C)C)c3)c(=O)n(Cc3cc(C(C)(C)C)c(O)c(C(C)(C)C)c3)c2=O)cc(C(C)(C)C)c1O | 218 to 219 °C
7 | N#Cc1cccc(-c2ccc3c(c2)NC(=O)CO3)c1 | 242 °C
8 | COC(=O)[C@H](CO)NC(=O)[C@H](CS)NC(C)=O | 127 to 128 °C
9 | Cc1nc2ccccc2c2c([N+](=O)[O-])cnn12 | 178 to 179 °C
10 | CC(C)(C)c1cc(CCc2ccccc2NC(=O)NC(C)(C)c2ccc(Cl)c(Cl)c2)cc(C(C)(C)C)c1O | 203 to 205 °C
11 | CC(Oc1ccc(-c2ccc(Cl)cc2)cc1)(C(=O)O)C(F)(F)F (stereo not drawn) | 198 to 199 °C
12 | CCc1cc(OCc2ccc(-c3ccccc3-c3nnn(C(c4ccccc4)(c4ccccc4)c4ccccc4)n3)cc2)c2c(n1)COCC2 | 168 to 170 °C
13 | N#Cc1cc(Cl)ccc1NC(=O)C(F)(F)F | 105 to 107 °C
14 | COCCNC(=O)c1nc(NC(C)=O)c2cc(Cc3ccc(F)cc3)cnc2c1OCc1ccccc1 | 147 to 149 °C
15 | CN1C(=O)[C@H](NC(=O)CC2CCCCC2)N=C(c2ccccc2)c2ccccc21 | 144 to 146 °C
16 | Nc1cc(Oc2ccc(Oc3cc(N)cc(C(F)(F)F)c3)c(C(F)(F)F)c2)cc(C(F)(F)F)c1 | 82 to 84 °C
17 | ClCCCCCOc1ccc(C2=C(c3ccccc3)CCCc3ccccc32)cc1 | 118 to 120 °C
18 | C(=C/c1ccccc1)/COCCC1CCN(Cc2ccccc2)CC1 | 68 to 70 °C
19 | CCOC(=O)CCCCCCCn1cnc(-c2ccccc2)c1 | 56 to 57 °C
20 | NNC(=O)c1ccccc1-c1ccc([N+](=O)[O-])cc1 | 194 to 196 °C

Row | Compound | melting point
21 | CC(C)CC(=O)Nc1cccc(-c2ccnc3c(-c4ccc(Cl)c(Cl)c4)cnn23)c1 | 215 to 217 °C
22 | CCOC(=O)Cc1ccccc1Oc1ccc(C)cc1 | 75 °C
23 | COc1ccc2nc([C@H](CC(C)C)NC(=O)OCc3ccccc3)[nH]c2c1 | 73 to 77 °C
24 | CCC(=O)C(CCCCCCCCc1ccc(O)cc1)C(=O)CC | 164 to 165 °C
25 | CC(C)(C)OC(=O)NCc1ccc(C(=O)NCCC(=O)OCc2ccccc2)cc1 | 113 to 116 °C
26 | COc1ccc(Cc2cccc(C(Cl)(C3=NCCCN3)c3ccccc3)c2)cc1 (stereo not drawn) | 125 °C
27 | CS(=O)(=O)c1ccc(C(=O)c2cc(Cl)ccc2N)cc1 | 176 to 177 °C
28 | O=[N+]([O-])c1ccc(NCc2ccccc2)c([N+](=O)[O-])c1 | 106 °C
29 | COc1cc(OCc2ccccn2)ccc1/C=C/C(=O)CC(=O)/C=C/c1cc2ccccc2o1 | 126 to 128 °C
30 | O=C(Nc1nnn[nH]1)c1cccc([N+](=O)[O-])c1Cl | 279 °C
31 | Cn1cc(CC(=O)O)c(OCc2ccc(OCc3csc(-c4ccccc4)n3)nc2)n1 | 156 to 157 °C
32 | COc1cc(OC)cc(C(O)C(=O)c2ccccc2)c1 (stereo not drawn) | 98 to 104 °C
33 | N#Cc1cnc(NS(=O)(=O)c2cccc(Cl)c2Cl)c(OCc2cccnc2)n1 | 222 to 224 °C
34 | Cc1cccc(COc2cccc(OCc3ccc4cc(F)cc(F)c4n3)c2)c1OCC(=O)O | 137 to 141 °C
35 | CN(C)c1ccc(CC(CS)C(=O)Nc2cccc(C(=O)O)c2)cc1 (stereo not drawn) | 91 to 93 °C
36 | CCCc1nc(S(C)(=O)=O)c(C(=O)O)n1Cc1ccc(-c2ccccc2S(=O)(=O)NC(=O)NCC)cc1 | 131 °C
37 | CCCCCCCCCCCCCCCCNc1ccc(C(=O)NS(C)(=O)=O)cc1 | 173 to 175 °C
38 | O=P(Oc1cccc(OP(=O)(c2ccccc2)c2ccccc2)c1)(c1ccccc1)c1ccccc1 | 130 °C
39 | COc1ccc(-c2ccc(CC(=O)O)cc2F)cc1 | 140 to 142 °C
40 | CN(C)S(=O)(=O)CS(=O)(=O)c1ccccc1 | 102 to 103 °C

Row | Compound | melting point
41 | Nc1noc2cccc(OCCBr)c12 | 105 to 107 °C
42 | C=Cc1nc(Cl)nc(Cl)c1OC | 60 to 61 °C
43 | CCCOC1C(O)C(CO)OC1n1cnc2c(NC(=O)C(C)C)nc(NC(=O)C(C)C)nc21 (stereo not drawn) | 140 to 142 °C
44 | CSc1nc(-c2ccncc2)n(-c2ccc(F)cc2)c(=O)c1C#N | 301 to 303 °C
45 | CN1Cc2c(C(=O)OCC3CCC3)ncn2-c2cccc(Cl)c2C1=O | 181 to 182 °C
46 | COc1ccc2[nH]c(C(=O)c3ccccc3)c(NC(C)=O)c2c1OC | 118 to 120 °C
47 | CCCCn1c(=O)c2[nH]ncc2n(CCC(C)C)c1=O | 77 to 79 °C
48 | Oc1ccc(-c2nc3cc(O)cc(Br)c3o2)cc1 | 139 to 141 °C
49 | COCCCOc1cc(CC(CC(NC(=O)OC(C)(C)C)C2CC(C)C(=O)O2)C(C)C)ccc1OC (stereo not drawn) | 86 to 87 °C
50 | N#CC1=Cc2cc(Br)ccc2OC1 | 132 to 133 °C
51 | CC(C)NC(=O)c1cc(Oc2ccc3c(C(=O)Nc4cccc(C(F)(F)F)c4)cccc3c2)ncn1 | 205 to 208 °C
52 | C=C1SC(=O)N(c2ccc3cc(-c4cc5c(c(-c6cccnc6)c4)OCO5)ccc3c2)C1=O | 298 to 300 °C
53 | CC(C)(C)c1ccc(S(=O)(=O)CC(=O)N=C=O)cc1 | 163 °C
54 | Brc1cnc(-c2ccccc2)c2ccccc12 | 123 to 125 °C
55 | CCOc1nc(-c2ccc(NC(=O)NCc3cccnc3)cc2)ccc1C(=O)NC | 200 °C
56 | OCc1ccc2c(ccc3c4ccccc4ccc23)c1 | 261 to 262 °C
57 | C[C@]12C[C@H](c3ccc(OCCCCCS(=O)(=O)CCCC(F)(F)C(F)(F)F)cc3)[C@@H]3c4ccc(OC5CCCC5)cc4CC[C@H]3[C@@H]1CC[C@@H]2O | 166 °C
58 | COc1ccc2oc(Cc3cccc(Cl)c3)c(CC#N)c2c1 | 82 °C

Now from value to molecule:

Row | melting point | Compound
59 | 101 to 106 °C | COc1ccc(NS(=O)(=O)c2ccc(N3CCC(NC[C@H](O)COc4ccc(O)cc4)CC3)cc2)cc1OC
60 | 169 to 170 °C | Cc1cc(OC(F)F)cc(NC(=O)NS(=O)(=O)c2ccccc2Cl)n1
61 | 116 to 118 °C | Cc1nn(-c2c(Cl)cc(C(F)(F)F)cc2Cl)c(N)c1I
62 | 224 to 226 °C | COc1ccc(C2Cc3cc(C(F)(F)F)ccc3NC(=O)C2CSC)cc1 (stereo not drawn)
63 | 172 to 173 °C | Cc1csc(-c2cc(C)cn2-c2ccc(S(N)(=O)=O)cc2)c1
64 | 111 to 114 °C | COC(=O)C1CN(Cc2cccnc2)C(=O)C(=C2SC=CS2)C1=O (stereo not drawn)
65 | 127 to 129 °C | Cc1cc(C)c2ncc(NC(=O)c3cc(C(C)(C)C)c(O)c(C(C)(C)C)c3)c(-c3ccccc3Cl)c2c1
66 | 105 to 108 °C | O=c1c(F)cn(C2CCCO2)c(=O)n1C1CCCO1 (stereo not drawn)
67 | 151 to 152 °C | CC(=O)Nc1cc(Cl)c(O)c(Cl)c1
68 | 168 to 169 °C | CC(C)CNCc1cc2cc(NC(=O)c3ccc(C#CC4(O)CCC4)cc3)ccc2n1C
69 | 93 to 94 °C | CON1CCC2(CC1)C(=O)C(Cl)(c1cc(C)c(C)cc1Cl)C(=O)N2C (stereo not drawn)
70 | 230 to 232 °C | Cc1nc2c(c(N)c1C(=O)O)c1ccccc1n2C
71 | 151 °C | COc1cc(-c2csc(C3CC3)n2)cc2oc(=O)c(C)c(C)c12
72 | 230 to 232 °C | CC(C)(C)N1CC(=O)Nc2ccc(I)cc2C1=O
73 | 104 °C | COCc1nc2c(NC(=O)C(C)(C)C)cccn2c1C
74 | 184 to 185 °C | COCCN1C(=O)C(C)(C)C(=O)Nc2cc(C#N)ccc21
75 | 130 to 134 °C | Cc1cc(Cl)ccc1OCC(=O)N1Cc2ccc(C(=O)CCc3ccccc3)n2Cc2ccccc21
76 | 208 to 210 °C | COc1ccc(NC(C)=O)cc1C(=O)O
77 | 159 to 164 °C | C[C@]1(CN2CCC(c3ccccc3)CC2)Cn2cc([N+](=O)[O-])nc2O1
78 | 105 to 106 °C | O=C(NC/C=C\COc1cc(CN2CCCCC2)ccn1)c1cc(-c2ccccc2)on1

Row | melting point | Compound
79 | 103 to 106 °C | COC(=O)C(C)(C)S(=O)(=O)N1CCC(c2ccc(Br)c(C)c2)CC1
80 | 144 to 146 °C | O=C1c2ccccc2C(=O)N1CCCCN1CCC(c2noc3cc(F)ccc23)CC1
81 | 224 to 225 °C | CCC(C)NC1=NS(=O)(=O)c2sc(C)cc2N1 (stereo not drawn)
82 | 286 to 289 °C | CC1(C)CCC(C)(C)c2cc3c(cc21)CCc1c(-c2ccc(C(=O)O)cc2)ccnc1-3
83 | 250 °C | Cc1nn(C)c(O)c1C(=O)c1c(Cl)cccc1Cl
84 | 256 to 257 °C | Cc1nnc(-c2cc(NCc3c(C)cccc3C)c3nc(C)n(C)c3c2)o1
85 | 223 to 224 °C | COc1cc(N)c(Cl)cc1C(=O)NN1CCN(Cc2ccsc2)CC1
86 | 49 to 51 °C | COC(=O)c1cccc(CN2CCN(c3nc(C)c(C(=O)NCc4ccccc4)s3)C2=O)c1
87 | 144 to 145 °C | Cc1nc(N2CCCC(Cc3cc(F)ccc3F)C2=O)sc1C(=O)NCc1ccccc1 (stereo not drawn)
88 | 98 to 100 °C | O=[N+]([O-])c1cc([N+](=O)[O-])c(OCCO)cc1Cl
89 | 106 °C | CC(C)(C)OC(=O)N1CCN(C(=O)c2ccccc2)CC1
90 | 159 to 161 °C | CCOC(=O)N1C=CC(c2c(-c3ccc(F)cc3)nc3c(C)c(C)c(Cl)nn23)C=N1 (stereo not drawn)
91 | 140 °C | Cc1nc2scc(C)n2c(=O)c1CCN1CCC(C2(c3ccc(F)cc3)OCCO2)CC1
92 | 210 to 212 °C | COc1ccnc(CCc2nc3cc(-c4ccc(S(=O)(=O)N5CCOCC5)cc4)cnc3[nH]2)c1
93 | 196 to 198 °C | CCC(C)(C)Nc1c(NCc2cccc(C)c2C)c(=O)c1=O
94 | 132 to 133 °C | COc1cc2c(c(OC)c1)C1CCC3(C)C(=O)CCC3C1CC2 (stereo not drawn)
95 | 93 to 94.5 °C | COc1cnc(CO)cc1OC1CCCC1
96 | 40 °C | C=CCOc1ccc(C(=O)CC(=O)C(C)(C)C)cc1OC
97 | 85 to 86 °C | COc1ccccc1CN1CCc2cc(OCc3ccccc3)c(OC)cc2C1
98 | 193 to 195 °C | COCCCN1C(=O)COc2ccc(Br)cc21
